How the values were obtained:
MDS-L cells = test: Colony formation of MDS-L cells in vitro; type: cell-based; conditions: for colony formation of MDS-L cells: FIGS. 7A-7C; for colony formation potential of MDS-L cells: FIGS. 6A-6B
Excerpt: FIGS. 6A and 6B show the effect of UR241-1 and UR241-2 on the colony formation potential of MDS-L cells in vitro.

[1] = tested on: IL1b signaling events in THP-1 cells; test: Western blot of IL1b signaling events in THP-1 cells; type: cell-based, human; conditions: THP-1 cells at 10 and 30 minutes; hIL-1β 10 ng/mL, UR241-2 4 μM, WB 30 μg/lane; FIG. 1E
Procedure: Whole cell lysates of THP1 treated with vehicle, hIL-1B (10 ng/mL), UR241-1 (10 μM) and UR241-2 (4 μM) for 10 minutes and 30 minutes. 30 μg proteins were electrophoresed and probed with phospho-/native p65, phospho-p38, pAKT, and GAPDH.

murine MLL-AF9 leukemia = test: Colony forming activity in methylcellulose culture, MLL-AF9 leukemia; type: cell-based
THP-1 cells = test: Colony formation of THP-1 cells in vitro; type: cell-based, human; conditions: FIGS. 4A-4C
Excerpt: FIGS. 4A, 4B and 4C show the effect of MCC950 (reference), UR241-1, and UR241-2 on the colony formation potential of THP-1 cells in vitro.

SMILES	colony formation of MDS-L cells (MDS-L cells)	inhibition of IL1b signaling events [1]	inhibition of colony forming activity (murine MLL-AF9 leukemia; UR241-2 4 uM with MCC950 100 nM, FIG. 1F)	inhibition of colony forming activity (murine MLL-AF9 leukemia; UR241-2 4 uM without MCC950, FIG. 1F)	colony formation potential of MDS-L cells (MDS-L cells)	colony formation potential of THP-1 cells (THP-1 cells)
CC[C@@H]1[C@H](F)C(=O)N[C@@H]1COc1nccc2cc(C(N)=O)c(OC)cc12 [PF06650833, reference compound]	inhibited colony formation of MDS-L cells in vitro, dose-dependently					
COc1cc(N2CCS(=O)(=O)CC2)ccc1NC(=O)c1cccc(-c2cc[nH]n2)n1 [UR241-2]	inhibited colony formation of MDS-L cells in vitro, dose-dependently	inhibition	inhibition of colony forming activity	inhibition of colony forming activity	suppressed the colonies formed by MDS-L cells dose dependently	suppressed the colonies formed by THP-1 cells dose-dependently
COc1cc(N2CCS(=O)(=O)CC2)ccc1NC(=O)c1cccc(-c2cc[nH]n2)c1 [UR241-1]					suppressed the colonies formed by MDS-L cells dose dependently	suppressed the colonies formed by THP-1 cells dose-dependently
CC(C)(O)c1coc(S(=O)(=O)NC(=O)Nc2c3c(cc4c2CCC4)CCC3)c1 [MCC950, reference compound]	inhibited colony formation of MDS-L cells in vitro, dose-dependently					suppressed the colonies formed by THP-1 cells dose-dependently
